Assay results as given in US20260271926A1, “BACTERIA-RESPONSIVE PARTICLES, METHODS FOR PREPARATION, AND USE IN PACKAGING OR ON SURFACES” (priority 2023, published 2026).

Key:
[1] = Calcein fluorescence stability in 1685 NYC III medium and G. vaginalis supernatant; format: physicochemical; conditions: 10 μg/mL calcein, 37° C., 140 hours
Method: Bacteria-responsive calcein release of liposomes. Calcein's stability in different media was evaluated by measuring its fluorescence intensity that varied with time in 1685 NYC III medium and G. vaginalis supernatant, respectively. Briefly, calcein was dissolved in the medium to reach a concentration of 10 μg/mL (with 1% v/v penicillin/streptomycin) added. The solution was incubated at 37° C. and shaken at 100 rpm (avoid light). Samples were taken at different time intervals and changes of fluorescence intensity were monitored.

[2] = test system: human red blood cells (RBCs); assay: Hemolytic activity assay; format: cell-based; conditions: 2% human RBCs, 30 min, 37° C.
Method: Hemolytic Activity Assay. For hemolytic assays, washed human red blood cells (RBCs) (Innovative Research, Novi, MI USA) were suspended in 1×PBS (pH 7.2, Wisent, Quebec City, QC Canada) to a final concentration of 2%. For sequestration studies, liposomal samples were diluted in PBS to the desired concentration and added to the erythrocytes. The hemolytic reaction was then initiated through the addition of either bacterial supernatant normalized to a 0.5 McFarland standard or recombinant S. pneumoniae serotype 2 PLY (E. coli host expression, MyBioSource, San Diego, CA USA) at the desired volume or concentration. For assays involving PLY, the toxin was preincubated with 2 mM dithiothreitol (DTT) for 1 hr at room temperature prior to the assay in order to reduce the cysteine residue present in the undecapeptide sequence and activate the protein [59]. The solution was incubated in a 1.5 ml Eppendorf microtube for 30 min at 37° C. and non-lysed RBCs were pelleted via centrifugation at 1000×g for 10 min at 4° C. The supernatant was then collected and transferred to a 96 well plate, with the extent of hemoglobin release determined via absorbance measurements at 450 nm. A control set was also included, involving a negative control of RBCs in only PBS and a positive control of RBCs in a 0.02% Triton™ X-100 solution (100% lysis). Percent lysis was determined from these readouts as per Eq (4): […]

O=C(O)CN(CC(=O)O)Cc1cc2c(cc1O)Oc1cc(O)c(CN(CC(=O)O)CC(=O)O)cc1C21OC(=O)c2ccccc21 [calcein]
calcein fluorescence decrease [1]: 11-15%

pneumolysin [PLY]
concentration giving full lysis [2]: 200 ng/mL
